Assay results taken from patent US20180015170A1, “CYCLODEXTRIN-BASED POLYMERS FOR THERAPEUTIC DELIVERY” (CERULEAN PHARMA INC., priority 2012, published 2018).
Values joined by “and” are separate entries in the source; they are usually repeats but may differ in a detail not shown here. Equal entries are not always repeated.

Assays:
B16.F10 cells = assay: Efficacy of CDP-docetaxel nanoparticles in a murine melanoma model; format: in vivo, male C57BL/6 mice
Protocol: (§1) Animals were monitored for any morbidity and adverse effect three times a week.
Tumor volume was calculated with a (width×width×length)/2 mm^3 formula.

[1] = Tolerability (body weight) in the B16.F10 murine melanoma model
Protocol: as §1
Health monitoring was conducted three times a week to evaluate lethargy, tremors, hypothermia, ataxia, hind limb paralysis etc. The criteria at which a mouse was removed from the study were >20% body weight loss or severe morbidity or hind limb paralysis.

[2] = 15 mg/kg IV, weekly schedule for 3 injections
[3] = 30 mg/kg IV, weekly schedule for 3 injections (sections 1.4, 2.3, 4.2, 5.2)

| Substance | day on which the mean tumor volume endpoint (≧3000 mm^3) was reached (B16.F10 cells; mouse, in vivo) | Tumor growth delay (TGD) (B16.F10 cells; [2]) | day on which the mean tumor volume endpoint (≧3000 mm^3) was reached (B16.F10 cells; [2]) | increase in TGD (B16.F10 cells; [2]) | Tumor growth delay (TGD) (B16.F10 cells; [3]) | day on which the mean tumor volume endpoint (≧3000 mm^3) was reached (B16.F10 cells; [3]) | increase in TGD (B16.F10 cells; [3]) | Maximum body weight loss (%) [1, 2] | Maximum body weight loss (%) [1, 3] |
| --- | --- | --- | --- | --- | --- | --- | --- | --- | --- |
| CDP-2′-alanine glycolate-docetaxel [CDP-Ala Gly-DTX formulation] | 43 days and 33 days and 29 days |  |  |  |  |  |  |  |  |
| CDP-dithiolethyloxy-carbonate-docetaxel [CDP-ethane-S-S-ethane-DTX formulation] |  | 2 days | 21 days | 11% | 5 days | 24 days | 26% | did not cause any body weight loss | did not cause any significant body weight loss |
| CDP-2′-aminoethoxyethoxy-Docetaxel [CDP-aminoethoxyethoxy-DTX formulation] |  |  | 33 days |  |  |  |  |  |  |
